Molecules are shown by their SMILES.

Results on two molecules are retold here after patent US6395906B1, “Intermediates to pesticidal 1-arylpyrazoles” (Rhone-Poulenc Inc., priority 1995, dated 2002).

Type in all cases: in vivo
Assay [1] has as its system buckthorn aphid (Aphis nasturtii). The assay can be described thus: Buckthorn aphid (BA) foliar spray test. Particulars: nasturtium plants wet to runoff, 100 or 500 ppm; dead aphids counted after one day. The protocol: (§1) For the tick, aphids, souther armyworm, tobacco budworm, house fly, Mexican bean beetle, American cockroach, cat flea, souther corn rootworm, western corn rootworm, black cutworm, and southern root-knot nematode, a solution or suspension was prepared by adding the test compound to a solution of dimethylformamide, acetone, emulsifiers which are alkylaryl polyether alcohols organic sulfonates, and water. The result was a 100 or 500 ppm concentration of the test compound.
Buckthorn aphid (BA) or cotton aphid (CA): Adult and nymphal stages of buckthorn or cotton aphid were reared on potted dwarf nasturtium or cotton plants, respectively. Plants infested with 100-150 aphids were wet to runoff with the 100 or 500 ppm test compound formulation. As an untreated control, a water-acetone-DMF-emulsifier solution containing no test compound was also applied to runoff to infested plants. The treated plants were stored for one day for buckthorn aphid and three days for cotton aphid, after which the dead aphids were counted.

Assay [2] has as its system tobacco budworm (Heliothis virescens). The assay can be described thus: Tobacco budworm (TBW) treated cotton leaf test. The note with it: cotton leaves, 100 ppm; second instar larvae, five days. In outline:
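Leaf-dip test: cotton leaves wetted to runoff with 100 ppm compound in DMF/acetone/emulsifier/water, dried, then offered to ten second-instar Heliothis virescens larvae in closed cups with moist wicks. Mortality scored after five days; larvae unable to move one body length on prodding counted dead; solvent-emulsifier control run alongside.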

In assay [3] the test system is Mexican bean beetle (Epilachna varivestis). The assay can be described thus: Mexican bean beetle (MBB) treated bean leaf test. Particulars: bean leaves, 100 or 500 ppm; second instar larvae, five days. As for the experimental part:
as §1
Southern armyworm (SAW), Mexican bean beetle (MBB): Bean leaves were wet to runoff with the 100 or 500 ppm test compound formulation. As an untreated control, a water-acetone-DMF-emulsifier solution containing no test compound was also applied wet to runoff to bean leaves. Five or six randomly selected second instar southern armyworn larvae or Mexican bean bettle larvae were introduced into each plastic container with the dry treated leaves. The container was closed and held for five days. Larvae which were unable to move the length of the body, even upon stimulation by prodding, were considered dead.

Assay [4] concerns American cockroach (Periplaneta americana). The assay can be described thus: American cockroach (ACR) treated food pellet test. The note with it: food pellets with 500 ppm formulation; nymphs, contact and feeding mortality 1 and 5 days after infestation. In outline: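 Pet-food pellets treated with 500 ppm compound in DMF/acetone/emulsifier/water; solvent-only blank as control. Nymphs added after 48 h; contact and feeding mortality scored 1 and 5 days post-infestation.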

The subject of assay [5] is dog tick (Rhipicephalus sanguineus). As to the kind of experiment: Dog tick (DT) treated filter paper contact test. The note with it: 500 ppm, adult ticks, contact mortality 14 days after infestation. As for the experimental part:
as §1
(§2) Cat flea (CF), dog tick (DT): Filter papers were treated with an aliquot of the 500 ppm test formulation. As an untreated control, an aliquot of a water-acetone-DMF-emulsifier solution containing no test compound was applied in a similar manner. When dry, 2 treated filters were placed in a vial for the flea and another 2 filters in a vial for the tick. Five adult fleas were added to one vial and 5 adult ticks to the second vial. Contact mortality was assessed 1 day after infestation for the flea and 14 days after infestation for the tick.

For assay [6], the system named is cat flea (Ctenocephalides felis). As to the kind of experiment: Cat flea (CF) treated filter paper contact test. The note with it: 500 ppm, adult fleas, contact mortality 1 day after infestation. The protocol: as §1, §2
For assay [7], the system named is western corn rootworm (Diabrotica virgifera virgifera). As to the kind of experiment: Western corn rootworm (WCRW) soil test. Particulars: soil concentration 0.15 or 0.5 ppm; neonate larvae, mortality six days after infestation. In outline:
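Test formulation applied to dry sandy loam soil in a jar for 0.15 or 0.5 ppm soil concentration; solvent-only untreated control. After 24 h covered incubation, four germinated corn seedlings and ten neonate larvae added. Mortality assessed 6 days after infestation by Berlese funnel extraction.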

As to `CC(=O)c1c(S(=O)(=O)C(F)(F)F)c(C#N)nn1-c1c(Cl)cc(C(F)(F)F)cc1Cl` [Compound 1, 5-Acetyl-3-cyano-1-(2,6-dichloro-4-trifluoromethylphenyl)-4-trifluoromethylsulfonylpyrazole], the BA entry in assay [1] is “+ (active against 1 or more insects described above up to 100% mortality. This activity is indicated by a “+”)”. In addition, in assay [2], the TBW result is on record as “+ (active against 1 or more insects described above up to 100% mortality. This activity is indicated by a “+”)”. Further, the MBB entry in assay [3] is given as “+ (active against 1 or more insects described above up to 100% mortality. This activity is indicated by a “+”)”.

Consider `CCOC(OCC)c1c(SC(F)(F)F)c(C#N)nn1-c1c(Cl)cc(C(F)(F)F)cc1Cl` [Compound 18, 3-Cyano-1-(2,6-dichloro-4-trifluoromethylphenyl)-5-diethoxymethyl-4-trifluoromethylthiopyrazole], for which the ACR entry in assay [4] is “+ (active against 1 or more insects described above up to 100% mortality. This activity is indicated by a “+”)”. In assay [5], the DT entry is given as “+ (active against 1 or more insects described above up to 100% mortality. This activity is indicated by a “+”)”. In assay [6], the CF entry is reported as “+ (active against 1 or more insects described above up to 100% mortality. This activity is indicated by a “+”)”. Further, the WCRW entry in assay [7] was “+ (active against 1 or more insects described above up to 100% mortality. This activity is indicated by a “+”)”.
